Experimental data from patent US20130130305A1, “IN[…] THAT INHIBIT IAA OR A YAP FAMILY” (priority 2010, published 2013).

Legend:
C. albicans [1] = test: IAA-induced filamentation in C. albicans; assay type: cell-based, Candida albicans
Procedure: (§1) Analytical and phenotypic studies were performed in cognate deletion mutants, made in the Σ1278b background. A [^14C]Trp incorporation assay was performed to verify that phenotype observed in the library strain could be recapitulated in the newly constructed E1278b strain. Typically three independent transformants were isolated, confirmed by PCR and used for further studies. Standard culture conditions were used (Sherman et al., Laboratory Course Manual for Methods in Yeast Genetics, Cold Spring Harbor Laboratories Press, Cold Spring Harbor, N.Y., 1986) and analysis of IAA-associated phenotypes were performed as described earlier (Prusty et al., Proc. Natl. Acad. Sci. USA 101:4153-4157, 2004).
IAA induces filamentation in C. albicans: The effects of the secondary metabolites identified in fungi appear to be largely species specific (Chen and Fink, Genes Dev. 20:1150-1161, 2006). […] To test whether the IAA effects could cross species barriers, we exposed wild-type C. albicans, a human pathogen, as well as attenuated mutants in the mitogen-activated protein (MAP) kinase and the cAMP-dependent protein kinase pathways to IAA. […] The cph1Δ/Δefg1Δ/Δ double mutant, which is nonfilamentous under standard laboratory conditions and avirulent in mice, filaments in the oral cavity of immunosuppressed piglets and when embedded in agar (Riggle et al., Infect. Immun. 67:3649-3652, 1999).

C. albicans [2] = test: Growth on media containing IAA (IAA sensitivity) of C. albicans CAP1 deletion mutants; assay type: cell-based, Candida albicans
Procedure: as §1
To test if other aspects of IAA regulation in S. cerevisiae were also conserved in C. albicans, we tested Cap1, the C. albicans homolog of Yap, for its sensitivity to IAA.

S. cerevisiae = test: IAA-associated growth inhibition phenotype in S. cerevisiae ald mutants; assay type: cell-based, Saccharomyces cerevisiae
Procedure: as §1
The ability of a fungus to perceive a small molecule signal that causes it to differentiate into an invasive form has important implications for host-pathogen interactions. To test the hypothesis that mutants with aberrant IAA accumulation also affect dimorphism, we examined diploid filamentation and haploid invasive growth in all ald single mutants and selected combinations of double mutants. […] We also tested a previously reported growth inhibition phenotype associated with exposure to IAA. […] However, these phenotypes are consistent with ald2Δald3Δ mutants producing more IAA than isogenic wild-type strains.

`O=C(O)Cc1c[nH]c2ccccc12` [IAA, indole-3-acetic acid] was tested. Which filamentation (C. albicans [1]; single mutants efg1Δ/Δ or cph1Δ/Δ, exposed to IAA) did it give?
Its filamentation is “showed a robust filamentation”.

And the filamentation (C. albicans [1]; wild-type strains, treated with IAA vs untreated cells)?
The filamentation was “filamented more”.

What about the “growth on media containing IAA” value (C. albicans [2]; heterozygous and homozygous CAP1 deletion mutants vs isogenic wild type) of the same molecule?
The value was “grew less well”.

What about the “sensitivity to IAA” value (C. albicans [2]; heterozygous cap1Δ/+ vs wild-type CAP1+/+ or homozygous cap1Δ/Δ) of the same molecule?
The value was “intermediate sensitivity”.

And the “sensitivity to IAA (growth inhibition)” value (S. cerevisiae; deletion of both ald2 and ald3 vs wild-type cells)?
Its value is “increase in sensitivity to IAA”.

And the “sensitivity to IAA (growth inhibition)” value (S. cerevisiae; single deletion of an ALD gene vs wild-type cells)?
Its value is “did not affect IAA sensitivity”.
